Like-named read-outs stand apart in the source and are kept apart here.
Key:
[1] = system: TLR2 induced IL-6 in peripheral blood mononuclear cells (PBMCs); experiment: PBMC TLR2 Induced IL-6 Assay; assay type: cell-based, human; settings: human PBMCs, 10 μg/ml lipoteichoic acid for 5 hours, IL-6 by ELISA, value without asterisk, read-out: Cell IC50
Description: Peripheral blood mononuclear cells (PBMCs) were isolated from human blood containing the anti-coagulant EDTA (2.5 mM) by centrifugation over a FICOLL® gradient. PBMCs (250000 cells/well) were cultured in assay media (RPMI with 10% heat inactivated FCS) with compounds for 30 minutes at 37° C. in a 5% CO2 incubator. Following pretreatment with compounds, cells were stimulated for 5 hours with 10 μg/ml lipoteichoic acid (Invivogen, San Diego, Calif.), a TLR2 agonist. At the end of the culture, plates were centrifuged at 1800 rpm for 10 minutes to pellet the cells. Supernatants were harvested and analyzed for IL-6 levels by ELISA (BD Biosciences, San Jose, Calif.). Inhibition was calculated as either an IC50 or EC50. EC50 determinations are indicated with an asterisk.

IRAK4 = IRAK4 (Homo sapiens (Human), UniProt Q9NWZ3); experiment: IRAK4 Inhibition Assay; assay type: biochemical; settings: ATP 500 μM; IRAK4 0.6 nM; 60 min at room temperature
Description: The assays were performed in U-bottom 384-well plates. […] The reaction was initiated by the combination of IRAK4 with substrates and test compounds. The reaction was incubated at room temperature for 60 min. and terminated by adding 45 μL of 35 mM EDTA to each sample. The reaction mixture was analyzed on the Caliper LABCHIP® 3000 (Caliper, Hopkinton, Mass.) by electrophoretic separation of the fluorescent substrate and phosphorylated product.

Sequence of IRAK4 (Q9NWZ3 whole entry, species assumed): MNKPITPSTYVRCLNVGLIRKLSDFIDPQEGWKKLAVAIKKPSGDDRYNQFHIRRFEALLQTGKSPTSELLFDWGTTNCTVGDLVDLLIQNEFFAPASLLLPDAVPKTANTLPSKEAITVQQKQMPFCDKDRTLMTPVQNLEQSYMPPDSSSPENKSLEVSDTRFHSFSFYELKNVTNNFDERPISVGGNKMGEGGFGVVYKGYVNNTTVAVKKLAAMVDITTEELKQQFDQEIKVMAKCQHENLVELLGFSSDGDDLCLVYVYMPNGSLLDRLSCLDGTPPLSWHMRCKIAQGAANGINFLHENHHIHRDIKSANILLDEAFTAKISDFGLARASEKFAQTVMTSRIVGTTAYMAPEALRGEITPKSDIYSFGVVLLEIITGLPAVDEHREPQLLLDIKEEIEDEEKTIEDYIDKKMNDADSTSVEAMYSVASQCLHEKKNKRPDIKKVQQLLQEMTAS

Compound | IC50 ([1]; Homo sapiens, PBMC, 5 h) [nM] | IC50 (IRAK4) [nM] | IC50 [1] [nM]
CCOC(=O)C1CC(Nc2cc(Nc3ccc4ncsc4c3)ncc2C(=O)NC[C@@H](F)C(C)(C)O)C1 (some centres unmarked) [Example 70] | 530 | 8.7 | –
CC(C)Nc1cc(Nc2ccc3ncsc3c2)ncc1C(=O)NCC[C@H](C)NC(=O)CC(C)(C)O [Example 179] | 532 | 16.2 | –
CN(C)CC(=O)NC12CCC(Nc3cc(Nc4ccc5ncsc5c4)ncc3C(=O)NC[C@@H](F)C(C)(C)O)(CC1)C2 [Example 398] | 301 | 3.5 | –
CC(C)Nc1cc(Nc2ccc3ncsc3c2)ncc1C(=O)NC1CCN(S(C)(=O)=O)CC1 [Example 217] | 560 | 5 | –
CCOC(=O)c1cn2c(n1)sc1cc(Nc3cc(NC4CCCC4)c(C(=O)NC)cn3)ccc12 [Example 3] | 180 | 17.1 | –
CC(C)(O)[C@H](F)CNC(=O)c1cnc(Nc2nc3scnc3cc2F)cc1NCC(F)(F)F [Example 519] | 634 | 2.2 | –
CC(C)Nc1cc(Nc2ccc3ncsc3c2)ncc1C(=O)N[C@H]1CC[C@H](N)CC1 [Example 203] | 307 | 3.4 | –
CC(C)Nc1cc(Nc2ccc3ncsc3c2)ncc1C(=O)N[C@H]1CC[C@H](C(=O)NC(C)C)CC1 [Example 195] | 162 | 2 | –
CC(C)(O)[C@H](F)CNC(=O)c1cnc(Nc2ccc3nccn3n2)cc1NC1CCOCC1F (some centres unmarked) [Example 285] | 512 | 7.1 | –
CC(C)(O)[C@H](F)CNC(=O)c1cnc(Nc2nc3scnc3cc2F)cc1NC1CCCOC1 (some centres unmarked) [Example 473] | 401 | 1.5 | –
O=C(NCCN1CCOCC1)c1cnc(Nc2ccc3ncsc3c2)cc1NC1CCCC1 [Example 154] | 535 | 6.8 | –
CC(C)(O)[C@H](F)CNC(=O)c1cnc(Nc2ccc3ncc(C#N)cc3n2)cc1NC1CCC(F)C1 (some centres unmarked) [Example 413] | – | 6.3 | 226
CC(O)([C@H](F)CNC(=O)c1cnc(Nc2ccc3ncsc3c2)cc1NC1CC1)C(F)(F)F (some centres unmarked) [Example 19] | – | 4.3 | 177
CCOC(=O)NC12CCC(Nc3cc(Nc4ccc5ncsc5c4)ncc3C(=O)NC[C@@H](F)C(C)(C)O)(CC1)C2 [Example 397] | 197 | 4.9 | –
CC(C)(O)[C@H](F)CNC(=O)c1cnc(Nc2cc3scnc3cn2)cc1NC1CC1 [Example 315] | 426 | 3.9 | –
CC(C)(O)[C@H](F)CNC(=O)c1cnc(Nc2ccn3nccc3n2)cc1Nc1ccc(S(C)(=O)=O)cc1 [Example 383] | 194 | 6.3 | –
CNC(=O)C12CCC(NC(=O)c3cnc(Nc4ccc5ncsc5c4)cc3NC(C)C)(CC1)CC2 [Example 229] | 488 | 3.4 | –
CC(C)(O)[C@H](F)CNC(=O)c1cnc(Nc2ccn3ncc(F)c3c2)cc1NC1CC(F)(F)C1 [Example 420] | 184 | 3.6 | –
CC(C)CNc1cc(Nc2ccn3nccc3c2)ncc1C(=O)NC[C@@H](F)C(C)(C)O [Example 289] | 502 | 6.1 | –
CC(C)(C)Nc1cc(Nc2ccc3ncsc3c2)ncc1C(=O)NC[C@@H](F)C(C)(C)O [Example 83] | 133 | 11.5 | –
CC(C)Nc1cc(Nc2ccc3ncsc3c2)ncc1C(=O)NC[C@@H](F)C(O)C1CC1 (some centres unmarked) [Example 16] | – | 5.2 | 595
CC(C)Nc1cc(Nc2ccc3ncsc3c2)ncc1C(=O)NCC[C@@H](C)NC(=O)CC1CCCOC1 (some centres unmarked) [Example 194] | 208 | 2.5 | –
CC(C)(O)[C@H](F)CNC(=O)c1cnc(Nc2ccc3ncsc3c2)cc1N[C@@H](c1ccccc1)[C@H](O)CO [Example 49] | 444 | 3.4 | –

Compound | IC50 ([1]; Homo sapiens, PBMC, 5 h) [nM] | IC50 (IRAK4) [nM] | IC50 [1] [nM]
CC(C)Nc1cc(Nc2ccc3ncsc3c2)ncc1C(=O)NC1CCc2nc(N)sc2C1 (centres unmarked) [Example 521] | 2330 | 8.5 | –
CC(C)(O)[C@H](F)CNC(=O)c1cnc(Nc2ccc3ncc(F)cc3n2)cc1NC1CCOCC1 [Example 428] | 52 | 2 | –
Cc1ccccc1CNc1cc(Nc2ccc3ncsc3c2)ncc1C(=O)NC[C@@H](F)C(C)(C)O [Example 166] | 266 | 8.4 | –
CC(Nc1cc(Nc2ccc3ncsc3c2)ncc1C(=O)NC[C@@H](F)C(C)(C)O)C(F)(F)F (some centres unmarked) [Example 91] | 64 | 3.7 | –
CC(F)CNc1cc(Nc2ccc3ncsc3c2)ncc1C(=O)NC[C@@H](F)C(C)(C)O (some centres unmarked) [Example 451] | – | 5 | 258
CC(C)NC(=O)N[C@H](C)CCNC(=O)c1cnc(Nc2ccc3ncsc3c2)cc1NC(C)C [Example 177] | 191 | 1.7 | –
Cc1cn2nc(Nc3cc(NC4CC4)c(C(=O)NC[C@@H](F)C(C)(C)O)cn3)ccc2n1 [Example 278] | 618 | 10.8 | –
CC(C)Nc1cc(Nc2ccn3ncc(C#N)c3n2)ncc1C(=O)NC[C@@H](F)C(C)(C)O [Example 261] | 126 | 3.6 | –
CC(C)Nc1cc(Nc2ccc3ncsc3c2)ncc1C(=O)NC12CCC(N)(CC1)C2 [Example 224] | 280 | 9.6 | –
CC(C)(O)[C@H](F)CNC(=O)c1cnc(Nc2ccc3nonc3c2)cc1N[C@@H]1CCCC1F (some centres unmarked) [Example 357] | – | 7.2 | 399
CC(C)(O)[C@H](F)CNC(=O)c1cnc(Nc2ccc3ncsc3c2)cc1N[C@H]1CCC(CCO)C1 (some centres unmarked) [Example 67] | – | 6.8 | 248
CC(C)(O)[C@H](F)CNC(=O)c1cnc(Nc2ccc3ncsc3c2)cc1NCC1CCCO1 (some centres unmarked) [Example 93] | 619 | 16 | –
CC(C)Nc1cc(Nc2ccc3nsnc3c2)ncc1C(=O)NC[C@@H](F)C(C)(C)O [Example 41] | 318 | 3.5 | –
CC(C)(O)[C@H](F)CNC(=O)c1cnc(Nc2ccn3ncc(F)c3n2)cc1NC1CCC1 [Example 252] | 173 | 4.2 | –
CC(C)(O)[C@H](F)CNC(=O)c1cnc(Nc2ccc3ncncc3c2)cc1N[C@@H]1CCC[C@H]1O [Example 330] | 76 | 2.2 | –
CC(C)(O)C1CC(Nc2cc(Nc3ccc4ncsc4c3)ncc2C(=O)NC[C@@H](F)C(O)(C2CC2)C(F)(F)F)C1 (some centres unmarked) [Example 32] | 511 | 15 | –
CCNC(=O)c1ccc(Nc2cc(Nc3ccc4ncsc4c3)ncc2C(=O)NC[C@@H](F)C(C)(C)O)cc1 [Example 322] | 495 | 8.5 | –
CC(C)Nc1cc(Nc2ccc3ncsc3c2)ncc1C(=O)NC[C@@H](F)C(O)C(C)C (some centres unmarked) [Example 14] | – | 4.3 | 461
CNC(=O)[C@H]1CC[C@H](NC(=O)c2cnc(Nc3nc4ccnn4cc3F)cc2NC2CC2)CC1 [Example 508] | 10000 | 10.2 | –
CC(C)Nc1cc(Nc2ccc3ncsc3c2)ncc1C(=O)N[C@H]1CC[C@H](C(=O)NC2(C#N)CC2)C1 [Example 222] | 692 | 9.9 | –
CC(C)(F)CNc1cc(Nc2ccc3ncsc3c2)ncc1C(=O)NC[C@@H](F)C(C)(C)O [Example 126] | 102 | 1.5 | –
CC(C)(O)[C@H](F)CNC(=O)c1cnc(Nc2ccn3nccc3n2)cc1NC1CCC(F)C1 (some centres unmarked) [Example 248] | – | 3.1 | 176
CC(C)Nc1cc(Nc2ccc3ncsc3c2)ncc1C(=O)NC1CCN(C(=O)N2CCOCC2)CC1 [Example 218] | 471 | 7 | –
